Earlier results as cited in publication PMC11599114 (Viruses, 2024).
Where two headings read alike, the source gives them in different places.

Legend:
INFVA = tested on: INFVA; set-up: method as in AVPdb; settings: ref AVPdb; for IC50: virus entry
HSV-1 = settings: HSV-1, Vero
SARS-CoV-2 [1] = settings: SARS-CoV-2, Vero
Measles virus(MeV) = settings: VERO/hSLAM
[2] = tested on: influenza virus(H1N1,VR-1894); settings: H1N1 VR-1894, MDKC
SARS-CoV-2 [3] = tested on: SARS-CoV-2; set-up: method as in 3 sources; settings: SARS-CoV-2 infection, Vero E6
[4] = tested on: human parainfluenza virus 3 (HPIV3); set-up: method as in ref 16973588; settings: HPIV3 infection, HeLa
[5] = tested on: human parainfluenza virus 3 (HPIV3); set-up: method as in ref 16973588; settings: HPIV3 fusion, HeLa
influenza A virus(H1N1) = tested on: influenza A virus(H1N1); set-up: method as in 2 sources; settings: A(H1N1), MDCK
HSV-2 = settings: HSV-2, Vero
HCoV-229E = settings: Vero
HCoV-OC43 = settings: HCoV-OC43, Vero

Substance: AETVESCLAKPHTEN [AVP0967]
- IC50 (INFVA): 66 µM

Substance: AGDDQGLDKCVPNSKEK [AVP1195]
- EC50 (INFVA; fusion): 3.7 ± 0.35 pM

Substance: AKIXQSLXFIXKSDXLLHNV [DRAVPe00631]
- IC50/EC50 (RSV; ref DRAVP): 1.16 ± 0.08 µM

Substance: AVASVPRARGKYWWG [AVP0965]
- IC50 (INFVA): 44 µM

Substance: AVSKVLHLEGEVNKISALLSTNKAVVSLSNGVSVLTSKVLDLDNYIDKQLLPIVNK [AVP1971]
- IC50/EC50 (RSV; fusion, ref AVPdb): 1.68 µM

Substance: CFVPWFSKFlXRIL [DRAVPe00391]
- IC90 (HSV-1): 2.19 µM
- IC90 (SARS-CoV-2 [1]): 1.89 µM
- IC90 (Measles virus(MeV)): 31.1 µM
- IC90 [2]: 5.89 µM

Substance: CGGFVPWFSKFlXRIL [DRAVPe00392]
- IC90 (HSV-1): 8.21 µM
- IC90 (SARS-CoV-2 [1]): 10.2 µM
- IC90 (Measles virus(MeV)): 49.9 µM
- IC90 [2]: 9.9 µM

Substance: DASISQVNEKINQSLAFIRKSDELLHNVNAGKSTT [AVP0142]
- IC50/EC50 (RSV; fusion, ref AVPdb): 8 µM

Substance: DEDLEELERLYRKAEEVAKEAKDASRRGDDERAKEQMERAMRLFDQVFELAQELQEKQTDGNRQKATHLDKAVKEAADELYQRVR [DRAVPe00480]
- IC50 (SARS-CoV-2 [3]): 0.035 µM

Substance: DEFDASISQVNEKINQSLAFIRKSDELLHNVNAGK [AVP0139]
- IC50/EC50 (RSV; fusion, ref AVPdb): 12 µM

Substance: DFRRLPGAFWQLRQP [AVP0966]
- IC50 (INFVA): 52 µM

Substance: DITLNNSVALDPIDISIELNKAKSDLEESKEWIRRSNQKLDSIGN [DRAVPe01310]
- IC50 [4]: 0.5 µM
- IC50 [5]: 0.5 µM

Substance: DPLVFPSDEFDASISQVNEKINQSLAFIRKSDELL [AVP0132]
- IC50/EC50 (RSV; fusion, ref AVPdb): 8 µM

Substance: EAIXQSLXFIXKSDXLLHNV [DRAVPe00632]
- IC50/EC50 (RSV; ref DRAVP): 0.60 ± 0.02 µM

Substance: EEQAKTFLDK [DRAVPe01627]
- inhibition (SARS-CoV; 100 µM): 25%

Substance: EEQAKTFLDKFNHEAEDLFYQSSGLGKGDFR [DRAVPe01632]
- IC50 (SARS-CoV): 0.1 µM

Substance: EFDASISQVNEKINQSLAFIRKSDELLHNVNAGKS [AVP0140]
- IC50/EC50 (RSV; fusion, ref AVPdb): 13 µM

Substance: EKAXQSLXFIXKSDXLLHNV [DRAVPe00633]
- IC50/EC50 (RSV; ref DRAVP): 1.30 ± 0.89 µM

Substance: EKIAQSLXFIRXSDXLLHXV [DRAVPe00629]
- IC50/EC50 (RSV; ref DRAVP): 20.41 ± 2.4 µM

Substance: EKINQSLAFIRKSDELLHNV [DRAVPe00623]
- IC50/EC50 (RSV; ref DRAVP): >50 µM

Substance: EKINQSLXFIAXSDXLLHXV [DRAVPe00630]
- IC50/EC50 (RSV; ref DRAVP): 175 ± 0.00 µM

Substance: EKIXASLXFIXKSDXLLHNV [DRAVPe00634]
- IC50/EC50 (RSV; ref DRAVP): 0.28 ± 0.43 µM

Substance: EKIXQALXFIXKSDXLLHNV [DRAVPe00635]
- IC50/EC50 (RSV; ref DRAVP): 0.66 ± 0.26 µM

Substance: EKIXQSAXFIXKSDXLLHNV [DRAVPe00636]
- IC50/EC50 (RSV; ref DRAVP): 0.95 ± 0.53 µM

Substance: EKIXQSLXAIXKSDXLLHNV [DRAVPe00637]
- IC50/EC50 (RSV; ref DRAVP): 1.39 ± 0.10 µM

Substance: EKIXQSLXFAXKSDXLLHNV [DRAVPe00638]
- IC50/EC50 (RSV; ref DRAVP): 10.44 ± 2.97 µM

Substance: EKIXQSLXFIXASDXLLHNV [DRAVPe00639]
- IC50/EC50 (RSV; ref DRAVP): 10.93 ± 13.90 µM

Substance: EKIXQSLXFIXKADXLLHNV [DRAVPe00640]
- IC50/EC50 (RSV; ref DRAVP): 82.04 ± 1.56 µM

Substance: EKIXQSLXFIXKSAXLLHNV [DRAVPe00641]
- IC50/EC50 (RSV; ref DRAVP): 1.10 ± 0.08 µM

Substance: EKIXQSLXFIXKSDXALHNV [DRAVPe00642]
- IC50/EC50 (RSV; ref DRAVP): 0.88 ± 0.06 µM

Substance: EKIXQSLXFIXKSDXLLANV [DRAVPe00643]
- IC50/EC50 (RSV; ref DRAVP): 0.52 ± 0.07 µM

Substance: EKIXQSLXFIXKSDXLLHAV [DRAVPe00644]
- IC50/EC50 (RSV; ref DRAVP): 2.71 ± 2.93 µM

Substance: EKIXQSLXFIXKSDXLLHNA [DRAVPe00645]
- IC50/EC50 (RSV; ref DRAVP): 0.60 ± 0.03 µM

Substance: ELEEQVMHVLDQVSELAHELLHKLTGEELERAAYFNWWATEMMLELIKSDDEREIREIEEEARRILEHLEELARK [DRAVPe00481]
- IC50 (SARS-CoV-2 [3]): 0.0155 µM

Substance: EXINXSLXFIRXSDALLHNV [DRAVPe00646]
- IC50/EC50 (RSV; ref DRAVP): 1.00 ± 0.03 µM

Substance: EXINXSLXFIRXSDELLHNV [DRAVPe00626]
- IC50/EC50 (RSV; ref DRAVP): 0.59 ± 0.13 µM

Substance: FDASISQVNEKINQSLAFIRKSDELLHNVNAGKST [AVP0143]
- IC50/EC50 (RSV; fusion, ref AVPdb): 0.051 µM

Substance: FFVIFYRRKK [AVP1808]
- IC50 (INFVA): 1.48 µM

Substance: FINGRWDSQCHRFSNGAIACA [DRAVPe01800]
- IC50 (influenza A virus(H1N1)): 6.6 µg/mL

Substance: FPSDEFDASISQVNEKINQSLAFIRKSDELLHNVN [AVP0136]
- IC50/EC50 (RSV; fusion, ref AVPdb): 8 µM

Substance: FVPWFSKFlGRIL [DRAVPe00377]
- IC90 (HSV-1): 18.7 µM
- IC90 (HSV-2): 16.7 µM
- IC90 (SARS-CoV-2 [1]): 12.1 µM
- IC90 (HCoV-229E): 30.1 µM
- IC90 (HCoV-OC43): 15 µM

Substance: FVPWFSKFlPRIL [DRAVPe00378]
- IC90 (HSV-1): 18.8 µM
- IC90 (HSV-2): 19.2 µM
- IC90 (SARS-CoV-2 [1]): 14 µM
- IC90 (HCoV-OC43): 24.1 µM

Substance: FVPWFSKFlWRIL [DRAVPe00385]
- IC90 (HSV-1): 8.25 µM
- IC90 (HSV-2): 12.5 µM
- IC90 (SARS-CoV-2 [1]): 27.7 µM
- IC90 (HCoV-229E): 50 µM
- IC90 (HCoV-OC43): 24.2 µM
